In US9695395B2, “Generation and maintenance of stem cells” (The Scripps Research Institute, priority 2008, dated 2017):

What was measured:
EpiSCs = assay: Conversion of EpiSCs to mESC-like state by chemical compounds (colony morphology, ALP, selection); format: cell-based, murine; details: for effect on EpiSCs under mESC culture condition supplemented with LIF: feeder cells, 0.5 μM A-83-01, 0.5 μM PD0325901, 0.1 μM PD173074, 3 μM CHIR99021 where present
Method: EpiSCs differentiated in conventional mESC growth medium supplemented with LIF (bottom left); EpiSCs differentiated in conventional mESC growth medium supplemented with LIF and 0.5 μM MEK inhibitor PD0325901, 0.1 μM FGFR inhibitor PD173074 and 3 μM GSK3 inhibitor CHIR99021 (m/MFGi) (bottom right). […] EpiSCs were trypsinized to single cells, and plated on feeder cells under the mESC self-renewal condition with supplements of the indicated chemical compounds for about 4 days to induce conversion, followed by another 4 days of selection. The culture was subsequently replated and further selected and expanded for another two weeks, during which time stable clones were picked.
To test this hypothesis, EpiSCs were trypsinized to single cells and plated under mESC self-renewal conditions, based on the notion that “converted” mESC-like cells within EpiSC colonies would be captured/selected and expanded under the conditions that promote self-renewal of mESCs but induce differentiation of EpiSCs. […] Given that the “spontaneous” conversion from EpiSCs to mESCs might be very inefficient, a stronger and more stringent differential self-renewal promoting and differentiation inducing condition might be required to select/capture and expand those “rare” converted mESC-like cells from EpiSCs (e.g. achieving cleaner phenotypic distinction and minimizing the overgrowth of differentiated EpiSCs).
EpiSCs (line EpiSC-5, male) were maintained on irradiated CF1 MEFs in human ESC medium supplemented with 10 ng/ml bFGF as described previously (Tesar et al., Nature 448, 196-199, 2007). EpiSCs were passaged every 3-4 days with 1 mg/ml collagenase type IV (Invitrogen). The R1 mESCs were cultured on irradiated CF1 MEFs with conventional mESC growth media, which consist of Knockout DMEM (Invitrogen) supplemented with 20% KSR (Invitrogen), 0.1 mM 2-ME (Sigma-Aldrich), 2 mM L-glutamine (Invitrogen), 0.1 mM NEAA (Invitrogen), and 10^3 units/ml recombinant murine leukemia inhibitory factor (LIF) (ESGRO, Millipore). The mESCs and converted cells were passaged every 3 days as a single cell suspension using 0.05% trypsin/EDTA and seeded at 1.0×10^4 cells per cm^2 for routine culture.

BMP receptors = details: Tojo et al., 2005; cited from earlier work
riPSCs = assay: Maintaining the pluripotency of riPSCs in culture with small molecule combinations; format: cell-based, rat; details: 0.1 μM, added to the combination of PD0325901 and CHIR99021
Method: FIG. 5A-B. The effects of different small molecule combinations on maintaining the pluripotency of riPSCs in culture. riPSCs were trypsinized into single cells and seeded into 6-well plate at the density of 10^3 cells per well and treated with different inhibitor combinations. Five days latter, ALP staining was performed to visualize the riPSC colonies (A). The ALP positive colonies for each condition were counted from ten random 40× visual fields and the relative colony number was summarized in (B).
WB-F344, a diploid rat liver progenitor cell line (Grisham et al., Proc Soc Exp Biol Med 204, 270-279 (1993)), were transduced with Oct4, Sox2 and Klf4 by retroviruses and then split onto MEF feeder cells in the conventional mESC medium. Compact and alkaline phosphatase (ALP) positive ESC-like colonies were observed 10 days after transduction (the efficiency is about 0.4%) (FIG. 1A). […] Given the notion that small molecules can inhibit key differentiation-inducing pathways, we and others have previously identified and used small molecules to support mESC self-renewal in a more robust manner (Schugar et al., Gene Ther 15, 126-135 (2008); Xu et al., Nat Biotechnol 20, 1261-1264 (2002)). […]

Cc1cccc(-c2nn(C(=S)Nc3ccccc3)cc2-c2ccnc3ccccc23)n1 [A-83-01, 3-(6-Methyl-2-pyridinyl)-N-phenyl-4-(4-quinolinyl)-1H-pyrazole-1-carbothioamide]
effect on EpiSCs under EpiSC/hESC culture condition supplemented with bFGF (EpiSCs; 0.5 μM): induced rapid differentiation of EpiSCs
colonies that could self-renew and maintain ALP activity (EpiSCs; A-83-01 treated colonies exposed to 2PD/LIF condition for selection): more than 50%
effect on EpiSCs under mESC culture condition supplemented with LIF (EpiSCs): form more compact and domed colonies that resemble mESC colony morphology and express ALP
cross inhibitory effect on the BMP receptors (BMP receptors): no cross inhibitory effect

Cc1c[nH]c(-c2cnc(NCCNc3ccc(C#N)cn3)nc2-c2ccc(Cl)cc2Cl)n1 [CHIR99021]
effect of adding CHIR99021 to the 2PD/LIF condition (EpiSCs; 3 μM CHIR99021): did not promote or capture the conversion of EpiSCs to mESC-like state

CCN(CC)CCCCNc1ncc2cc(-c3cc(OC)cc(OC)c3)c(NC(=O)NC(C)(C)C)nc2n1 [PD173074]
effect of including PD173074 in medium (riPSCs): didn't show further benefit

N[C@@H]1C[C@H]1c1ccccc1 [parnate]
effect on EpiSCs under mESC culture condition supplemented with LIF (EpiSCs): form more compact and domed colonies that express ALP
EpiSCs that formed small and compact colonies (EpiSCs; four days of 2 μM parnate treatment, mESC growth condition): 70-80%
cells that survived the selection as domed and ALP positive colonies (EpiSCs; parnate-treated cells selected with 2PD/LIF): roughly 20%
